Reference: patent publication EP4813980A1, “EP300/CBP REGULATOR, AND PREPARATION METHOD THEREFOR AND USE THEREOF” (Miracure Biotechnology Limited, priority 2023, dated 2025)

Key:
Test in all cases: Cell growth inhibition, CellTiter-Glo, 72 h
Assay type in all cases: cell-based
22RV1 cells = settings: Homo sapiens, 72 h culture, mean of N=2
Method: (§1) 22RV1, vCap, MM1S and OPM-2 cells were cultured in RPMI-1640 medium (10% fetal bovine serum and 100 units of penicillin/streptomycin dual-antibody per mL were added to RPMI-1640) in a cell incubator at 37°C with 5% CO2, respectively. Cells in logarithmic growth phase were seeded into 96-well cell culture plates at 5×10^3 cells/100 µL/well and cultured overnight. Active compounds dissolved in DMSO at different concentrations were added with a final concentration of 0.5% DMSO. 1% Tween 20 was used as positive control and 0.5% DMSO was used as negative control. After 72 h of culture, an equal volume of CellTiter-Glo was added to each well, mixed by shaking for 2 min, and left standing at room temperature for 10 min. […] signal values were read with a microplate reader. Data were analyzed and graphs were generated using Prism 7.0. The values shown are mean ± SEM (N=2). […] The formula for inhibition rate is as follows: % Inhibition = (Icompound−IZPE)/(IHPE−IZPE) × 100 [formula]
(§2) The X-axis is compound concentration (nM), and the Y-axis is % Inhibition.

MM1S cells = settings: Homo sapiens, MM1.S, 72 h culture, mean of N=2
Method: as §1, §2

OPM-2 cells = settings: Homo sapiens, 72 h culture, mean of N=2
Method: as §1, §2

vCap cells = settings: Homo sapiens, 72 h culture, mean of N=2
Method: as §1, §2

| SMILES | IC50 (22RV1 cells) | IC50 (MM1S cells) | IC50 (OPM-2 cells) | IC50 (vCap cells) |
| --- | --- | --- | --- | --- |
| C=CS(=O)(=O)N[C@H]1CC[C@H](c2cc3c(c(N4CCCc5cc(-c6cnn(C)c6)c(C(F)F)cc54)c2)CN(C(=O)NC)CC3)CC1 [Compound 1367, 8-(7-(difluoromethyl)-6-(1-methyl-1H-pyrazol-4-yl)-3,4-dihydroquinolin-1(2H)-yl)-N-methyl-6-((1r,4r)-4-(vinylsulfonamido)cyclohexyl)-3,4-dihydroisoquinoline-2(1H)-carboxamide] | 135 nM | 33 nM | 4 nM | 46 nM |
| CC(=O)N1Cc2cc([C@H]3CC[C@@H](NC(=O)CCl)CC3)cc(N3CCCc4cc(-c5cnn(C)c5)c(C(F)F)cc43)c2C1 [Compound 1361] | 106 nM | 2 nM | 1 nM | – |
| CC(=O)N1Cc2cc([C@H]3CC[C@H](NC(=O)/C=C/CN(C)C)CC3)cc(N3CCCc4cc(-c5cnn(C)c5)c(C(F)F)cc43)c2C1 [Compound 1356] | 4270 nM | 464 nM | 53 nM | – |
| C=CS(=O)(=O)N[C@H]1CC[C@H](n2nc(N3CCCc4cc(-c5cnn(C)c5)c(C(F)F)cc43)c3c2CCN(C(C)=O)C3)CC1 [Compound 1387, N-((1r,4r)-4-(5-acetyl-3-(7-(difluoromethyl)-6-(1-methyl-1H-pyrazol-4-yl)-3,4-dihydroquinolin-1(2H)-yl)-4,5,6,7-tetrahydro-1H-pyrazolo[4,3-c]pyridin-1-yl)cyclohexyl)ethenesulfonamide] | 18 nM | 3 nM | 1 nM | 3 nM |
| CNC(=O)N1CCc2c(c(N3CCCc4cc(-c5cnn(C)c5)c(C(F)F)cc43)nn2C2CCOCC2)C1 [GNE-781] | 4240 nM | 104 nM | 8 nM | 2150 nM |
| C=CS(=O)(=O)N[C@H]1CC[C@H](n2nc(N3CCCc4cc(-c5cnn(C)c5)c(C(F)F)cc43)c3c2CCN(C(=O)NC)C3)CC1 [Compound 1374, 3-(7-(difluoromethyl)-6-(1-methyl-1H-pyrazol-4-yl)-3,4-dihydroquinolin-1(2H)-yl)-N-methyl-1-((1r,4r)-4-(vinylsulfonamido)cyclohexyl)-1,4,6,7-tetrahydro-5H-pyrazolo[4,3-c]pyridine-5-carboxamide] | 11 nM | 1 nM | 1 nM | 1 nM |
| CC(=O)N1Cc2cc([C@H]3CC[C@H](CN4Cc5cc6c(cc5C4)C(=O)N(C4CCC(=O)NC4=O)C6=O)CC3)cc(N3CCCc4cc(-c5cnn(C)c5)c(C(F)F)cc43)c2C1 (relative stereo) [Compound 2083, 6-(((1r,4r)-4-(2-acetyl-7-(7-(difluoromethyl)-6-(1-methyl-1H-pyrazol-4-yl)-3,4-dihydroquinolin-1(2H)-yl)isoindolin-5-yl)cyclohexyl)methyl)-2-(2,6-dioxopiperidin-3-yl)-6,7-dihydropyrrolo[3,4-f]isoindole-1,3(2H,5H)-dione] | > 10000 nM | 35 nM | 13 nM | 58 nM |
| C=CS(=O)(=O)N[C@H]1CC[C@@H](n2nc(N3CCCc4cc(-c5cnn(C)c5)c(C(F)F)cc43)c3c2CCN(C(C)=O)C3)CC1 [Compound 1388, N-((1s,4s)-4-(5-acetyl-3-(7-(difluoromethyl)-6-(1-methyl-1H-pyrazol-4-yl)-3,4-dihydroquinolin-1(2H)-yl)-4,5,6,7-tetrahydro-1H-pyrazolo[4,3-c]pyridin-1-yl)cyclohexyl)ethenesulfonamide] | 15 nM | 3 nM | 1 nM | 2 nM |
| C=CS(=O)(=O)N1CCC(c2cc3c(c(N4CCCc5cc(-c6cnn(C)c6)c(C(F)F)cc54)c2)CN(C(C)=O)CC3)CC1 [Compound 1368] | 1390 nM | – | 168 nM | – |
| CC(=O)N1Cc2cc(C3CCN(CC4CCN(c5ccc6c(c5)C(=O)N(C5CCC(=O)NC5=O)C6=O)CC4)CC3)cc(N3CCCc4cc(-c5cnn(C)c5)c(C(F)F)cc43)c2C1 (stereo not shown) [Compound 2085] | 4 nM | 2 nM | 2 nM | 2 nM |
| CC(=O)N1Cc2cc(C3CCN(CC4CCN(c5ccc6c(c5)n(C)c(=O)n6C5CCC(=O)NC5=O)CC4)CC3)cc(N3CCCc4cc(-c5cnn(C)c5)c(C(F)F)cc43)c2C1 (stereo not shown) [Compound 2068] | 0.06 nM | 0.07 nM | 0.04 nM | 0.07 nM |
| CC#CC(=O)N1CCC(c2cc3c(c(N4CCCc5cc(-c6cnn(C)c6)c(C(F)F)cc54)c2)CN(C(C)=O)C3)CC1 [Compound 1359] | 545 nM | – | 15 nM | – |
| CNC(=O)N1CCc2cc(C3CCN(C(=O)CCCCCCCCNc4ccc5c(c4)n(C)c(=O)n5C4CCC(=O)NC4=O)CC3)cc(N3CCCc4cc(-c5cnn(C)c5)c(C(F)F)cc43)c2C1 (stereo not shown) [Compound 2018] | 0.01 nM | 0.1 nM | 0.05 nM | < 0.005 nM |
| C=CS(=O)(=O)N1CCC(n2c([C@@H]3CCCC(=O)N3c3ccc(F)c(F)c3)nc3cc(-c4c(C)noc4C)ccc32)CC1 [Compound 1373, (S)-1-(3,4-difluorophenyl)-6-(5-(3,5-dimethylisoxazol-4-yl)-1-(1-(vinylsulfonyl)piperidin-4-yl)-1H-benzo[d]imidazol-2-yl)piperidin-2-one] | 208 nM | 44 nM | 12 nM | 51 nM |
| CC(=O)N1Cc2cc(C3CCN(Cc4ccc(COc5cccc6c5CN(C5CCC(=O)NC5=O)C6=O)cc4)CC3)cc(N3CCCc4cc(-c5cnn(C)c5)c(C(F)F)cc43)c2C1 (stereo not shown) [Compound 2006, 3-[4-({4-[(4-{2-acetyl-7-[7-(difluoromethyl)-6-(1-methylpyrazol-4-yl)-3,4-dihydro-2H-quinolin-1-yl]-1 ,3-dihydroisoindol-5-yl}piperidin-1-yl)methyl]phenyl}methoxy)-1-oxo-3H-isoindol-2-yl]piperidine-2,6-dione] | 0.47 nM | 0.27 nM | 0.19 nM | 0.4 nM |
| C=CS(=O)(=O)N1CCC(n2nc(N3CCCc4cc(-c5cnn(C)c5)c(C(F)F)cc43)c3c2CCN(C(=O)NC)C3)CC1 [Compound 1369, 3-(7-(difluoromethyl)-6-(1-methyl-1H-pyrazol-4-yl)-3,4-dihydroquinolin-1(2H)-yl)-N-methyl-1-(1-(vinylsulfonyl)piperidin-4-yl)-1,4,6,7-tetrahydro-5H-pyrazolo[4,3-c]pyridine-5-carboxamide] | 4 nM | 1 nM | 0.4 nM | 1 nM |
| C=CS(=O)(=O)N1CCC(n2nc(N3CCCc4cc(-c5cnn(C)c5)c(C#N)cc43)c3c2CCN(C(=O)NC)C3)CC1 [Compound 1379, 3-[7-cyano-6-(1-methylpyrazol-4-yl)-3,4-dihydro-2H-quinolin-1-yl]-1-[1-(vinylsulfonyl)piperidin-4-yl]-N-methyl-4H,6H,7H-pyrazolo[4,3-c]pyridine-5-carboxamide] | 28 nM | 5 nM | 5 nM | 8 nM |
| CC(=O)N1Cc2cc([C@H]3CC[C@@H](NC(=O)/C=C/CN(C)C)CC3)cc(N3CCCc4cc(-c5cnn(C)c5)c(C(F)F)cc43)c2C1 [Compound 1358] | 4940 nM | 598 nM | 39 nM | – |
| C=C(F)C(=O)N1CCC(c2cc3c(c(N4CCCc5cc(-c6cnn(C)c6)c(C(F)F)cc54)c2)CN(C(C)=O)C3)CC1 [Compound 1365] | 3350 nM | – | 30 nM | – |
| CNC(=O)N1CCc2cc(C3CCN(CCc4ccc(COc5cccc6c5CN(C5CCC(=O)NC5=O)C6=O)cc4)CC3)cc(N3CCCc4cc(-c5cnn(C)c5)c(C(F)F)cc43)c2C1 (stereo not shown) [Compound 2066, 8-(7-(difluoromethyl)-6-(1-methyl-1H-pyrazol-4-yl)-3,4-dihydroquinolin-1(2H)-yl)-6-(1-(4-(((2-(2,6-dioxopiperidin-3-yl)-1-oxoisoindolin-4-yl)oxy)methyl)phenylethyl)piperidin-4-yl)-N-methyl-3,4-dihydroisoquinoline-2(1H)-carboxamide] | 0.08 nM | 0.23 nM | – | – |
| CC(=O)N1Cc2cc(C3CCN(CCN4CCN(c5ccc6c(c5)CN(C5CCC(=O)NC5=O)C6=O)CC4)CC3)cc(N3CCCc4cc(-c5cnn(C)c5)c(C(F)F)cc43)c2C1 (stereo not shown) [Compound 2070] | 0.42 nM | 0.34 nM | – | – |
| CC(=O)N1Cc2cc(C3CCN(CC4CCN(CCOc5cccc6c5CN(C5CCC(=O)NC5=O)C6=O)CC4)CC3)cc(N3CCCc4cc(-c5cnn(C)c5)c(C(F)F)cc43)c2C1 (stereo not shown) [Compound 2054] | 0.84 nM | 0.33 nM | – | 0.26 nM |
| CC(=O)N1Cc2cc(C3CCN(CC4CCN(CCNc5ccc6c(c5)CN(C5CCC(=O)NC5=O)C6=O)CC4)CC3)cc(N3CCCc4cc(-c5cnn(C)c5)c(C(F)F)cc43)c2C1 (stereo not shown) [Compound 2062] | 0.24 nM | 0.04 nM | – | 0.06 nM |
| CC(=O)N1Cc2cc(C3CCN(CCN4CCC(COc5ccc6c(c5)CN(C5CCC(=O)NC5=O)C6=O)CC4)CC3)cc(N3CCCc4cc(-c5cnn(C)c5)c(C(F)F)cc43)c2C1 (stereo not shown) [Compound 2071] | 0.5 nM | 0.31 nM | – | – |
